The results in this text go back to patent US7101878B1 (Agouron Pharmaceuticals, Inc., priority 1998, dated 2006).

SMILES strings stand for the structures.

This assay deals with T1, mouse GnRH receptor (Mus musculus, UniProt Q01776).
T1 construct: expressed in transfected cells; host or cells: 293 cells
T1 sequence (Q01776 1-327): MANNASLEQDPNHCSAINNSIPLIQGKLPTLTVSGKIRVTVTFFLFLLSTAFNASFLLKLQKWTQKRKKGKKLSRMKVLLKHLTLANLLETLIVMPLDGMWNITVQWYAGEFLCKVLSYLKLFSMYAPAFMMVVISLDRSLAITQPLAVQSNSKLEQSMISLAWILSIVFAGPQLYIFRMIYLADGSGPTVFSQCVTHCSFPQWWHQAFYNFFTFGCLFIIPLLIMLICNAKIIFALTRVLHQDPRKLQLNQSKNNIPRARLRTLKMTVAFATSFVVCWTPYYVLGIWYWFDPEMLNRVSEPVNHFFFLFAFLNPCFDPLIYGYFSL
Kind of assay: Radioligand binding, 125I-GnRH-A, 293 cells expressing mouse GnRH receptors. Conditions: 1 h, substrate remaining; 10 uM compound; closer to zero = closer to 100% inhibition; read-out: S%R 10 uM mGnRHR. A digest of the protocol: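 Bound label captured on 0.1% polyethyleneimine-treated GF/C filters, washed three times with PBS, counted. IC50 derived; identical set-up for every species.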
Take `Cc1cc2c(cc1Cc1ccc(C(=O)NCCCN3CCOCC3)o1)C(C)(C)CCC2(C)C` [Compound 460]: the remaining activity at 10 µM was -4%.
The same measure for `Cc1cc2c(cc1Cc1ccc(C(=O)NCCc3ccc(S(N)(=O)=O)cc3)o1)C(C)(C)CCC2(C)C` [Compound 461]: 53%.
Turning to `Cc1cc2c(cc1Cc1ccc(C(=O)NCCCN(C)c3ccccc3)o1)C(C)(C)CCC2(C)C` [Compound 462], the remaining activity at 10 µM is 0%.
Turning to `Cc1cc2c(cc1Cc1ccc(C(=O)N3CCC(C(N)=O)CC3)o1)C(C)(C)CCC2(C)C` [Compound 463], the remaining activity at 10 µM was -5%.
For the compound `Cc1cc2c(cc1Cc1ccc(C(=O)NCC(=O)Nc3ccc([N+](=O)[O-])cc3)o1)C(C)(C)CCC2(C)C` [Compound 464], the remaining activity at 10 µM was determined as 7%.
For `Cc1cc2c(cc1Cc1ccc(C(=O)NCCNCCN3CCOCC3)o1)C(C)(C)CCC2(C)C` [Compound 465] the value was 32%.
The same measure for `Cc1cc2c(cc1Cc1ccc(C(=O)NC3CCCCC3Nc3nccc(NCC4CCCO4)n3)o1)C(C)(C)CCC2(C)C` (stereo not shown) [Compound 466]: 30%; for `Cc1cc2c(cc1Cc1ccc(C(=O)NCCc3ccc4c(c3)OCO4)o1)C(C)(C)CCC2(C)C` [Compound 467]: -1%; for `Cc1cc2c(cc1Cc1ccc(C(=O)NCCCn3ccnc3)o1)C(C)(C)CCC2(C)C` [Compound 468]: -10%.
For `Cc1cc2c(cc1Cc1ccc(C(=O)NCCCc3ccccc3)o1)C(C)(C)CCC2(C)C` [Compound 469] the value was -9%; for `Cc1cc2c(cc1Cc1ccc(C(=O)NCCc3c[nH]c4ccccc34)o1)C(C)(C)CCC2(C)C` [Compound 470], 6%.
As for `Cc1cc2c(cc1Cc1ccc(C(=O)NCCc3cccs3)o1)C(C)(C)CCC2(C)C` [Compound 471], the remaining activity at 10 µM was -4%.
For `Cc1cc2c(cc1Cc1ccc(C(=O)NCCCNCCCCNCCCN)o1)C(C)(C)CCC2(C)C` [Compound 472] the value was 42%; for `Cc1cc2c(cc1Cc1ccc(C(=O)NC3CCCC(Nc4ccnc(NCC5CCCO5)n4)C3)o1)C(C)(C)CCC2(C)C` (stereo not shown) [Compound 473], -14%; for `COc1ccc(C(=O)CNC(=O)c2ccc(Cc3cc4c(cc3C)C(C)(C)CCC4(C)C)o2)cc1` [Compound 474], 39%.
The same measure for `Cc1cc2c(cc1Cc1ccc(C(=O)NCCCN3CCN(C)CC3)o1)C(C)(C)CCC2(C)C` [Compound 475]: -3%; for `CC(=O)NCCNC(=O)c1ccc(Cc2cc3c(cc2C)C(C)(C)CCC3(C)C)o1` [Compound 476]: 20%.
On to `Cc1cc2c(cc1Cc1ccc(C(=O)Nc3ccc4[nH]c(-c5ccccn5)nc4c3)o1)C(C)(C)CCC2(C)C` [Compound 477], for which the remaining activity at 10 µM was determined as 47%.
In the case of `Cc1cc2c(cc1Cc1ccc(C(=O)NCc3ccc(-c4csnn4)cc3)o1)C(C)(C)CCC2(C)C` [Compound 478], the remaining activity at 10 µM was determined as 3%.
As for `Cc1cc2c(cc1Cc1ccc(C(=O)NCC3CCC(C(=O)O)CC3)o1)C(C)(C)CCC2(C)C` (stereo not shown) [Compound 479], the remaining activity at 10 µM was -3%.
The same measure for `Cc1cc2c(cc1Cc1ccc(C(=O)N3CCN(c4cccc(NCC5CCCO5)n4)CC3)o1)C(C)(C)CCC2(C)C` (stereo not shown) [Compound 480]: -2%; for `Cc1cc2c(cc1Cc1ccc(C(=O)NC3CCCCC3Nc3ccnc(NCC4CCCO4)n3)o1)C(C)(C)CCC2(C)C` (stereo not shown) [Compound 481]: 5%.
For `Cc1cc2c(cc1Cc1ccc(C(=O)NCCc3ccc([N+](=O)[O-])cc3)o1)C(C)(C)CCC2(C)C` [Compound 482] the value was 34%; for `Cc1cc2c(cc1Cc1ccc(C(=O)NCC3CCNCC3)o1)C(C)(C)CCC2(C)C` [Compound 483], 10%.
For `Cc1cc2c(cc1Cc1ccc(C(=O)NCc3ccc4c(c3)OCO4)o1)C(C)(C)CCC2(C)C` [Compound 484] the value was -1%; for `Cc1cc2c(cc1Cc1ccc(C(=O)NCCc3ccncc3)o1)C(C)(C)CCC2(C)C` [Compound 485], -5%.
In the case of `Cc1cc2c(cc1Cc1ccc(C(=O)NC3CCC(c4nccc(NCC5CCCO5)n4)C3)o1)C(C)(C)CCC2(C)C` (stereo not shown) [Compound 486], the remaining activity at 10 µM worked out at 33%.
For the compound `Cc1cc2c(cc1Cc1ccc(C(=O)NCCCCNc3nccc(NCC4CCCO4)n3)o1)C(C)(C)CCC2(C)C` (stereo not shown) [Compound 487], the remaining activity at 10 µM worked out at 3%.
For `Cc1cc2c(cc1Cc1ccc(C(=O)NCCN3CCCCC3)o1)C(C)(C)CCC2(C)C` [Compound 488] the value was -3%; for `COc1ccc(CCNC(=O)c2ccc(Cc3cc4c(cc3C)C(C)(C)CCC4(C)C)o2)cc1OC` [Compound 489], -1%; for `COc1cc(CNC(=O)c2ccc(Cc3cc4c(cc3C)C(C)(C)CCC4(C)C)o2)cc(OC)c1` [Compound 490], 4%.
Take `Cc1cc2c(cc1Cc1ccc(C(=O)NCC3CCN(c4nccc(NCC5CCCO5)n4)CC3)o1)C(C)(C)CCC2(C)C` (stereo not shown) [Compound 491]: the remaining activity at 10 µM is 9%.
For `Cc1cc2c(cc1Cc1ccc(C(=O)NCC3CCCC(CNc4nccc(NCC5CCCO5)n4)C3)o1)C(C)(C)CCC2(C)C` (stereo not shown) [Compound 492] the value was -7%.
For `COC(=O)CCCCCNC(=O)c1ccc(Cc2cc3c(cc2C)C(C)(C)CCC3(C)C)o1` [Compound 493] the value was -6%.
The same measure for `Cc1cc2c(cc1Cc1ccc(C(=O)NCCCN3CCCCC3C)o1)C(C)(C)CCC2(C)C` (stereo not shown) [Compound 494]: -7%; for `COc1cccc(CCNC(=O)c2ccc(Cc3cc4c(cc3C)C(C)(C)CCC4(C)C)o2)c1` [Compound 495]: 4%; for `Cc1cc2c(cc1Cc1ccc(C(=O)NCCCN(C)CCCN)o1)C(C)(C)CCC2(C)C` [Compound 496]: -6%.
Consider `Cc1cc2c(cc1Cc1ccc(C(=O)NCc3ccc(C(=O)O)cc3)o1)C(C)(C)CCC2(C)C` [Compound 497], for which the remaining activity at 10 µM worked out at 2%.
Consider `CNCCCNC(=O)c1ccc(Cc2cc3c(cc2C)C(C)(C)CCC3(C)C)o1` [Compound 498], for which the remaining activity at 10 µM turned out to be 58%.
The same measure for `Cc1cc2c(cc1Cc1ccc(C(=O)NCC3CN(Cc4ccccc4)CCO3)o1)C(C)(C)CCC2(C)C` (stereo not shown) [Compound 499]: 1%; for `Cc1cc2c(cc1Cc1ccc(C(=O)NCc3nc4ccccc4[nH]3)o1)C(C)(C)CCC2(C)C` [Compound 500]: -4%; for `Cc1cc2c(cc1Cc1ccc(C(=O)NCc3ccccn3)o1)C(C)(C)CCC2(C)C` [Compound 501]: -3%.
For `COc1cc(CNC(=O)c2ccc(Cc3cc4c(cc3C)C(C)(C)CCC4(C)C)o2)cc(OC)c1OC` [Compound 502] the value was -2%; for `Cc1cc2c(cc1Cc1ccc(C(=O)NCCc3ccc(N)cc3)o1)C(C)(C)CCC2(C)C` [Compound 503], -3%.
For `Cc1cc2c(cc1Cc1ccc(C(=O)NCCc3cccc(Oc4ccccc4)c3)o1)C(C)(C)CCC2(C)C` [Compound 504] the value was 46%; for `Cc1cc2c(cc1Cc1ccc(C(=O)NCCCN3CCCCC3)o1)C(C)(C)CCC2(C)C` [Compound 505], 7%.
